Test results from US9012492B2, “Apocynin-lipoic acid conjugates and uses thereof” (priority 2011, dated 2015).

Columns and labels:
[1] = Stability in sodium phosphate buffer (HPLC); assay type: physicochemical; conditions: for stability in sodium phosphate buffer: 50 mM, HPLC; for half-life: buffer without microsomes and without NADPH; for half-life / % Metabolism in 30 minutes / CLintr (mL/min/g liver): matrix buffer (no microsomes, no NADPH)
Procedure: The stability of the compound of Formula (Ia) in a sodium phosphate buffer (50 mM, pH 7.4) was evaluated using HPLC. […] Area counts of apocynin and lipoid acid were found in 0 minute samples and were generally constant until the last time point measured (see: FIGS. 11-12 and Tables 5-6).

[2] = Stability in methanolic solution; assay type: physicochemical; conditions: stock 1 mg/mL in methanol
[3] = system: Sprague-Dawley rats; assay: Infarct volume after permanent (6 h) middle cerebral artery occlusion; assay type: in vivo, rat; conditions: 0.1 or 1.0 mg/kg iv 30 min prior to 6 h permanent occlusion (no reperfusion)
Excerpt: The detailed methodology for permanent middle cerebral artery occlusion (MCAO) and transient (I/R) occlusion of the middle cerebral artery has been published previously.^46 Briefly, animals were placed in a David Kopf stereotaxic frame (Tujunga, Calif.), and the right middle cerebral artery (MCA) approached through a rostral-caudal incision of the skin and frontalis muscle at the approximate level of bregma. Blood flow through the MCA was impeded by the placement of surgical suture behind the MCA at three designated positions along the exposed vessel. […] The concentration of 0.1 mg/kg represents the optimal dose of the compound of Formula (Ia), as determined above, and 1.0 mg/kg represents a 10-fold higher concentration of the optimal dose, as the optimal dose of 0.1 mg/kg was not effective in producing neuroprotection. […] At the end of each experiment in which infarct volume was measured, animals were transcardially perfused with PBS (0.1 M; 200 ml), the brains were removed and sliced into 1-mm coronal sections using a rat brain matrix (Harvard Apparatus, Holliston, Mass.). […] Infarct volumes were calculated with the use of scanned digital images of each brain section. The infarct area for both sides of each brain section was calculated using a computer-assisted imaging system (Scion, Frederick, Md.). […]

[4] = system: rat liver microsomes; assay: Metabolic stability using rat liver microsomes; assay type: in vitro ADME; conditions: RLM
Excerpt: Table 7 summarizes the experimental conditions used in the studies of the metabolic stability of the compound of Formula (Ia) using rat liver microsomes. Table 8 and FIG. 13 show the results from the studies of the metabolic stability of the compound of Formula (Ia) using rat liver microsomes. [table]

Compound: COc1cc(C(C)=O)ccc1OC(=O)CCCCC1CCSS1 (stereo not shown) [compound of Formula (Ia)]
- % Remaining ([1]; 0.5 μM in sodium phosphate buffer (50 mM, pH 7.4), 0 min, Set-1): 100%
- % Remaining ([1]; 0.5 μM in sodium phosphate buffer (50 mM, pH 7.4), 3 min, Set-1): 64%
- % Remaining ([1]; 0.5 μM in sodium phosphate buffer (50 mM, pH 7.4), 6 min, Set-1): 50%
- % Remaining ([1]; 0.5 μM in sodium phosphate buffer (50 mM, pH 7.4), 9 min, Set-1): 55%
- % Remaining ([1]; 0.5 μM in sodium phosphate buffer (50 mM, pH 7.4), 12 min, Set-1): 50%
- % Remaining ([1]; 0.5 μM in sodium phosphate buffer (50 mM, pH 7.4), 15 min, Set-1): 50%
- % Remaining ([1]; 0.5 μM in sodium phosphate buffer (50 mM, pH 7.4), 18 min, Set-1): 50%
- % Remaining ([1]; 0.5 μM in sodium phosphate buffer (50 mM, pH 7.4), 21 min, Set-1): 73%
- % Remaining ([1]; 0.5 μM in sodium phosphate buffer (50 mM, pH 7.4), 27 min, Set-1): 64%
- % Remaining ([1]; 0.5 μM in sodium phosphate buffer (50 mM, pH 7.4), 30 min, Set-1): 77%
- stability in sodium phosphate buffer ([1]; 0.5 μM, pH 7.4): stable
- % Remaining ([1]; 10 μM in sodium phosphate buffer (50 mM, pH 7.4), 0 min, Set-1): 100%
- % Remaining ([1]; 10 μM in sodium phosphate buffer (50 mM, pH 7.4), 3 min, Set-1): 83%
- % Remaining ([1]; 10 μM in sodium phosphate buffer (50 mM, pH 7.4), 6 min, Set-1): 73%
- % Remaining ([1]; 10 μM in sodium phosphate buffer (50 mM, pH 7.4), 9 min, Set-1): 83%
- % Remaining ([1]; 10 μM in sodium phosphate buffer (50 mM, pH 7.4), 12 min, Set-1): 73%
- % Remaining ([1]; 10 μM in sodium phosphate buffer (50 mM, pH 7.4), 15 min, Set-1): 74%
- % Remaining ([1]; 10 μM in sodium phosphate buffer (50 mM, pH 7.4), 18 min, Set-1): 71%
- % Remaining ([1]; 10 μM in sodium phosphate buffer (50 mM, pH 7.4), 21 min, Set-1): 76%
- % Remaining ([1]; 10 μM in sodium phosphate buffer (50 mM, pH 7.4), 27 min, Set-1): 57%
- % Remaining ([1]; 10 μM in sodium phosphate buffer (50 mM, pH 7.4), 30 min, Set-1): 79%
- stability in sodium phosphate buffer ([1]; 10 μM, pH 7.4): stable
- half-life ([1]; DLM/HLM study): 23 min
- half-life ([1]; rat liver microsome study): > 30 min
- % Remaining ([1]; buffer, 0 h, 0.5 μM, pH 7.4): 100%
- Apocynin area counts, % Remaining ([1]; buffer, 0 h, 0.5 μM, pH 7.4): 100%
- Lipoic acid area counts, % Remaining ([1]; buffer, 0 h, 0.5 μM, pH 7.4): 100%
- % Remaining ([1]; buffer, 0 h, 10 μM, pH 7.4): 100%
- Apocynin area counts, % Remaining ([1]; buffer, 0 h, 10 μM, pH 7.4): 100%
- Lipoic acid area counts, % Remaining ([1]; buffer, 0 h, 10 μM, pH 7.4): 100%
- % Remaining ([1]; buffer, 0.05 h, 0.5 μM, pH 7.4): 71%
- Apocynin area counts, % Remaining ([1]; buffer, 0.05 h, 0.5 μM, pH 7.4): 78%
- Lipoic acid area counts, % Remaining ([1]; buffer, 0.05 h, 0.5 μM, pH 7.4): 103%
- % Remaining ([1]; buffer, 0.05 h, 10 μM, pH 7.4): 92%
- Apocynin area counts, % Remaining ([1]; buffer, 0.05 h, 10 μM, pH 7.4): 96%
- Lipoic acid area counts, % Remaining ([1]; buffer, 0.05 h, 10 μM, pH 7.4): 100%
- % Remaining ([1]; buffer, 0.1 h, 0.5 μM, pH 7.4): 59%
- Apocynin area counts, % Remaining ([1]; buffer, 0.1 h, 0.5 μM, pH 7.4): 68%
- Lipoic acid area counts, % Remaining ([1]; buffer, 0.1 h, 0.5 μM, pH 7.4): 99%
- % Remaining ([1]; buffer, 0.1 h, 10 μM, pH 7.4): 80%
- Apocynin area counts, % Remaining ([1]; buffer, 0.1 h, 10 μM, pH 7.4): 91%
- Lipoic acid area counts, % Remaining ([1]; buffer, 0.1 h, 10 μM, pH 7.4): 105%
- % Remaining ([1]; buffer, 0.15 h, 0.5 μM, pH 7.4): 47%
- Apocynin area counts, % Remaining ([1]; buffer, 0.15 h, 0.5 μM, pH 7.4): 65%
- Lipoic acid area counts, % Remaining ([1]; buffer, 0.15 h, 0.5 μM, pH 7.4): 91%
- % Remaining ([1]; buffer, 0.15 h, 10 μM, pH 7.4): 87%
- Apocynin area counts, % Remaining ([1]; buffer, 0.15 h, 10 μM, pH 7.4): 94%
- Lipoic acid area counts, % Remaining ([1]; buffer, 0.15 h, 10 μM, pH 7.4): 113%
- % Remaining ([1]; buffer, 0.2 h, 0.5 μM, pH 7.4): 53%
- Apocynin area counts, % Remaining ([1]; buffer, 0.2 h, 0.5 μM, pH 7.4): 71%
- Lipoic acid area counts, % Remaining ([1]; buffer, 0.2 h, 0.5 μM, pH 7.4): 89%
- % Remaining ([1]; buffer, 0.2 h, 10 μM, pH 7.4): 76%
- Apocynin area counts, % Remaining ([1]; buffer, 0.2 h, 10 μM, pH 7.4): 95%
- Lipoic acid area counts, % Remaining ([1]; buffer, 0.2 h, 10 μM, pH 7.4): 118%
- % Remaining ([1]; buffer, 0.25 h, 0.5 μM, pH 7.4): 65%
- Apocynin area counts, % Remaining ([1]; buffer, 0.25 h, 0.5 μM, pH 7.4): 68%
- Lipoic acid area counts, % Remaining ([1]; buffer, 0.25 h, 0.5 μM, pH 7.4): 106%
- % Remaining ([1]; buffer, 0.25 h, 10 μM, pH 7.4): 72%
- Apocynin area counts, % Remaining ([1]; buffer, 0.25 h, 10 μM, pH 7.4): 86%
- Lipoic acid area counts, % Remaining ([1]; buffer, 0.25 h, 10 μM, pH 7.4): 114%
- % Remaining ([1]; buffer, 0.3 h, 0.5 μM, pH 7.4): 59%
- Apocynin area counts, % Remaining ([1]; buffer, 0.3 h, 0.5 μM, pH 7.4): 70%
- Lipoic acid area counts, % Remaining ([1]; buffer, 0.3 h, 0.5 μM, pH 7.4): 96%
- % Remaining ([1]; buffer, 0.3 h, 10 μM, pH 7.4): 71%
- Apocynin area counts, % Remaining ([1]; buffer, 0.3 h, 10 μM, pH 7.4): 80%
- Lipoic acid area counts, % Remaining ([1]; buffer, 0.3 h, 10 μM, pH 7.4): 121%
- % Remaining ([1]; buffer, 0.35 h, 0.5 μM, pH 7.4): 76%
- Apocynin area counts, % Remaining ([1]; buffer, 0.35 h, 0.5 μM, pH 7.4): 82%
- Lipoic acid area counts, % Remaining ([1]; buffer, 0.35 h, 0.5 μM, pH 7.4): 117%
- % Remaining ([1]; buffer, 0.35 h, 10 μM, pH 7.4): 69%
- Apocynin area counts, % Remaining ([1]; buffer, 0.35 h, 10 μM, pH 7.4): 82%
- Lipoic acid area counts, % Remaining ([1]; buffer, 0.35 h, 10 μM, pH 7.4): 127%
- % Remaining ([1]; buffer, 0.45 h, 0.5 μM, pH 7.4): 71%
- Apocynin area counts, % Remaining ([1]; buffer, 0.45 h, 0.5 μM, pH 7.4): 79%
- Lipoic acid area counts, % Remaining ([1]; buffer, 0.45 h, 0.5 μM, pH 7.4): 119%
- % Remaining ([1]; buffer, 0.45 h, 10 μM, pH 7.4): 64%
- Apocynin area counts, % Remaining ([1]; buffer, 0.45 h, 10 μM, pH 7.4): 80%
- Lipoic acid area counts, % Remaining ([1]; buffer, 0.45 h, 10 μM, pH 7.4): 134%
- % Remaining ([1]; buffer, 0.5 h, 0.5 μM, pH 7.4): 94%
- Apocynin area counts, % Remaining ([1]; buffer, 0.5 h, 0.5 μM, pH 7.4): 85%
- Lipoic acid area counts, % Remaining ([1]; buffer, 0.5 h, 0.5 μM, pH 7.4): 151%
- % Remaining ([1]; buffer, 0.5 h, 10 μM, pH 7.4): 71%
- Apocynin area counts, % Remaining ([1]; buffer, 0.5 h, 10 μM, pH 7.4): 78%
- Lipoic acid area counts, % Remaining ([1]; buffer, 0.5 h, 10 μM, pH 7.4): 141%
- % Metabolism in 30 minutes ([1]; DLM/HLM study): 34%
- CLintr (mL/min/g liver) ([1]; DLM/HLM study): 3.2 mL/min/g liver
- % Metabolism in 30 minutes ([1]; rat liver microsome study): 21%
- CLintr (mL/min/g liver) ([1]; rat liver microsome study): 2.3 mL/min/g liver
- stability in methanolic solution [2]: stable
- neuroprotection (infarct volume) in permanent MCAO [3]: did not produce neuroprotection
- % Metabolism in 30 minutes ([4]; control (without NADPH)): 0%
- CLintr (mL/min/g liver) ([4]; control (without NADPH)): >67 mL/min/g liver
- % Metabolism in 30 minutes ([4]; reaction (with NADPH)): 0%
- CLintr (mL/min/g liver) ([4]; reaction (with NADPH)): >67 mL/min/g liver
